Assay results published in US8242136B2, “Use of glucosidase inhibitors for therapy of mucovisidosis” (Centre National de la Recherche Scientifique (C.N.R.S.), priority 2003, dated 2012).
“Also recorded” adds a separate entry of the source. Each block holds one compound with its values, some of them ahead of it.

How the values were obtained:
delF508-CFTR [1] = test: Iodide efflux on CF15 cells: addressing of delF508 after pre-treatment, stimulation with forskolin + genistein; assay type: cell-based, human; settings: CF15 cells treated with 100μM for two hours at 37° C.; Forskolin 10μM + Genistein 30μM; FIG. 7
delF508-CFTR [2] = test: as above; assay type: cell-based, human
Experimental: CF15 cells: CF15 cells are human epithelial cells of nasal origin which express the ΔF508-CFTR gene.
The measurements of chloride ion transport in the cells were carried out using the radioactive iodide efflux technique (Becq et al., 1999; Dormer et al., 2001). The tracer (^125I) is incorporated into the intracellular medium. Then, the quantity of radiotracer leaving the cell is counted after the addition of different pharmacological agents. The iodide is used as a tracer of the chloride ion transport. It has been shown that the two radiotracers ^125I and ^36Cl could be considered as equivalents for measuring the activity of a chloride channel (Venglarick et al., 1990). ^125I moreover has the advantage of having a short life compared with that of […] (respective half-lives: 30 days and 300,000 years). The cells are cultured on 24-well plates in an appropriate medium. 2 rinsings with efflux medium (NaCl: 136.6 mM, KCl: 5.4 mM, KH2PO4: 0.3 mM, NaH2PO4: 0.3 mM, NaHCO3: 4.2 mM, CaCl2: 1.3 mM, MgCl2: 0.5 mM, MgSO4: 0.4 mM, HEPES: 10 mM, D-glucose: 5.6 mM) are carried out in order to eliminate the dead cells which release the radioactivity in an anarchic manner. Then, the cells are incubated with 500 μl of charge (1 μCi/ml of ^125INa) for 30 minutes for CHO-WT or 1 hour for CF15 and Calu-3. The iodide is in equilibrium on both sides of the cell membrane. The robot (MultiPROBE, Packard) carries out the following stages: The charge medium is rinsed with efflux medium in order to eliminate the extracellular radioactivity. The supernatant is collected every minute in haemolysis tubes and the medium is replaced by an equivalent volume (500 μl). The samples taken in the first 3 minutes are not subjected to the addition of a drug, they make it possible to obtain a stable base line, characterizing the passive exit of the I^− ions. The following 7 samples are obtained in the presence of the molecule to be tested. At the end of the experiment, the cells are lysed by the addition of 500 μl of NaOH (0.1 N)/0.1% SDS (30 minutes), thus, the radioactivity remaining inside the cell can be determined. The radioactivity present in the haemolysis tubes is counted in counts per minute (cpm) using a gamma counter (Cobra II, Packard). The results in cpm are expressed in the form of exit speed of radioactive iodide (R) according to the following formula: R (min^−1)=[ln(^125I t1)−ln(^125I t2)]/(t1−t2) with ^125I t1: cpm at time t1; ^125I t2: cpm at time t2. This iodide flow is represented in the form of a curve. In order to quantify the exit of iodide due to the administration of the molecule tested, the following relative flow is calculated which makes it possible to be rid of the base flow: Relative speed (min^−1)=Rpeak−Rbasal. […] The results are presented in the form of an average+/−SEM. Student's statistical test is used in order to compare the effects of the drugs with the controls (the values corresponding to P<0.01 are considered statistically significant).
For each experiment, the addition of a cocktail (Forskolin 10 μM, Genistein 30 μM) allows the activation of the CFTR when the latter is on the membrane. […]
The CF15 cells were pre-treated for 2 hours with NB-DNJ (500μM). […] The CFTR activity is measured in iodide efflux (n=8 for each condition) after stimulation by fsk 10μM+Gst 30μM.
The CF15 cells were pre-treated for 2 hours with NB-DNJ at different concentrations. The CFTR activity is measured in iodide efflux (n=4 for each concentration) after stimulation with fsk 10μM+Gst 30μM.

wild-type CFTR [3] = target: T1, wild-type CFTR (Homo sapiens, UniProt P13569); test: Iodide efflux on Calu-3 cells: compound tested as activator; assay type: cell-based; settings: fsk 5μM, MPB-91 250μM, NB-DNJ 500μM, n=8
T1 construct: Calu-3 cells are human epithelial cells of pulmonary origin which express the wild-type CFTR gene; endogenous in cells; host or cells: Calu-3 human pulmonary epithelial cells
Experimental: (§1) Calu-3 cells: Calu-3 cells are human epithelial cells of pulmonary origin which express the wild-type CFTR gene.
(§2) The measurements of chloride ion transport in the cells were carried out using the radioactive iodide efflux technique (Becq et al., 1999; Dormer et al., 2001). The tracer (^125I) is incorporated into the intracellular medium. Then, the quantity of radiotracer leaving the cell is counted after the addition of different pharmacological agents. The iodide is used as a tracer of the chloride ion transport. […] 2 rinsings with efflux medium (NaCl: 136.6 mM, KCl: 5.4 mM, KH2PO4: 0.3 mM, NaH2PO4: 0.3 mM, NaHCO3: 4.2 mM, CaCl2: 1.3 mM, MgCl2: 0.5 mM, MgSO4: 0.4 mM, HEPES: 10 mM, D-glucose: 5.6 mM) are carried out in order to eliminate the dead cells which release the radioactivity in an anarchic manner. […] The robot (MultiPROBE, Packard) carries out the following stages: The charge medium is rinsed with efflux medium in order to eliminate the extracellular radioactivity. […] At the end of the experiment, the cells are lysed by the addition of 500 μl of NaOH (0.1 N)/0.1% SDS (30 minutes), thus, the radioactivity remaining inside the cell can be determined. The radioactivity present in the haemolysis tubes is counted in counts per minute (cpm) using a gamma counter (Cobra II, Packard). […]

wild-type CFTR [4] = test: Iodide efflux on Calu-3 cells pre-treated for 2 hours: addressing of wild-type CFTR; assay type: cell-based, human; settings: Calu-3 cells pre-incubated 2 hours at 37° C. (NB-DNJ 500μM or MPB-91 250μM), stimulated with 250μM MPB-91
Experimental: as §1, §2

[5] = patients suffering from acquired immunodeficiency syndrome; cited from earlier work
delF508-CFTR [6] = test: Immunolabelling / cell imaging of delF508 location in CF15 cells; assay type: cell-based, human; settings: CF15 cells after treatment
Experimental: Immunolabelling makes it possible to visualize the cell location of the CFTR protein by means of an anti-CFTR primary antibody (Ab) then a primary anti-antibody secondary antibody labelled with Cy3 fluorophore. The cells are previously seeded on lamellae in appropriate culture medium. 3 washings with TBS (NaCl: 157 mM, Tris base: […], pH 7.4) of 5 minutes each are carried out. The cells are then fixed by the addition of TBS-paraformadehyde (3%) over 20 minutes. After 3 washings with TBS (5 minutes), the cells are incubated with 0.1% TBS-triton (10 minutes) which allows the formation of holes in the cell membrane, then 3 washings with TBS are once again carried out before bringing the cells together with 0.5% TBS-BSA-0.05% saponin for 1 hour. The cells are then incubated with the CFTR anti-C terminal primary antibody (2μg/ml) for 1 hour. 3 washings with TBS-BSA-saponin of 5 minutes each are carried out before incubation with the GAM-cy3 secondary antibody ( 1/400) for 1 hour. Following two 5-minute washings with TBS, the nuclei are labelled by incubation with Topro3 ( 1/1000) for 5 minutes. Finally, the lamellae can be mounted on slides after three last 5-minute washings with TBS. […] In order to differentiate between Cy3 and Topro3 labelling the colour of fluorescence of Topro3 has been changed to blue (colour of the nuclei). […]

tissues in culture = settings: high concentration (2 mM); cited from earlier work
CHO-WT cells = test: MTT cytotoxicity test on CHO-WT cells; assay type: cell-based, Chinese Hamster; settings: 2 hours; for cytotoxicity (MTT): CHO cells
Experimental: CHO-WT cells: CHO (Chinese Hamster Ovary) cells are fibroblasts which have been transfected with the wild-type CFTR gene (CFTR-WT). These cells will therefore overexpress the CFTR protein.
The MTT toxicity test is a colorimetric test which is based on the ability of the mitochondrial dehydrogenases to metabolize MTT (yellow tetrazolium salt) to formazan (purple). The absorbance, proportional to the concentration of converted dye, can then be measured by spectrophotometry. The cells are incubated on 96-well plates in the presence of the agent to be tested for 2 hours. 3 controls are carried out: 100% live cells: cells without agent; 0% live cells: cells left in the open air; blank: medium without cells. […] Then they are incubated for 4 hours with 100 μl of RPMI solution supplemented with MTT (0.5 mg/ml). The medium is then eliminated, the addition of 100 μl of DMSO makes it possible to solubilize the converted dye (formazan). The absorbance is measured by spectrophotometry at: 570 nm (purple); 630 nm (background noise). In order to be rid of the background noise, the following calculation is carried out: ODreal=OD570 nm−OD630 nm.
For the purpose of testing the cytotoxicity of NB-DNJ, CHO-WT cells were incubated for 2 hours with different concentrations of inhibitors before being subjected to the cell viability test with MTT.
2 hours of treatment of the cells.

delF508 = settings: pulmonary epithelial cells; cited from earlier work
[7] = CF15 cells, stimulation Forskolin 10μM + Genistein 30μM

T1 sequence (P13569 whole entry): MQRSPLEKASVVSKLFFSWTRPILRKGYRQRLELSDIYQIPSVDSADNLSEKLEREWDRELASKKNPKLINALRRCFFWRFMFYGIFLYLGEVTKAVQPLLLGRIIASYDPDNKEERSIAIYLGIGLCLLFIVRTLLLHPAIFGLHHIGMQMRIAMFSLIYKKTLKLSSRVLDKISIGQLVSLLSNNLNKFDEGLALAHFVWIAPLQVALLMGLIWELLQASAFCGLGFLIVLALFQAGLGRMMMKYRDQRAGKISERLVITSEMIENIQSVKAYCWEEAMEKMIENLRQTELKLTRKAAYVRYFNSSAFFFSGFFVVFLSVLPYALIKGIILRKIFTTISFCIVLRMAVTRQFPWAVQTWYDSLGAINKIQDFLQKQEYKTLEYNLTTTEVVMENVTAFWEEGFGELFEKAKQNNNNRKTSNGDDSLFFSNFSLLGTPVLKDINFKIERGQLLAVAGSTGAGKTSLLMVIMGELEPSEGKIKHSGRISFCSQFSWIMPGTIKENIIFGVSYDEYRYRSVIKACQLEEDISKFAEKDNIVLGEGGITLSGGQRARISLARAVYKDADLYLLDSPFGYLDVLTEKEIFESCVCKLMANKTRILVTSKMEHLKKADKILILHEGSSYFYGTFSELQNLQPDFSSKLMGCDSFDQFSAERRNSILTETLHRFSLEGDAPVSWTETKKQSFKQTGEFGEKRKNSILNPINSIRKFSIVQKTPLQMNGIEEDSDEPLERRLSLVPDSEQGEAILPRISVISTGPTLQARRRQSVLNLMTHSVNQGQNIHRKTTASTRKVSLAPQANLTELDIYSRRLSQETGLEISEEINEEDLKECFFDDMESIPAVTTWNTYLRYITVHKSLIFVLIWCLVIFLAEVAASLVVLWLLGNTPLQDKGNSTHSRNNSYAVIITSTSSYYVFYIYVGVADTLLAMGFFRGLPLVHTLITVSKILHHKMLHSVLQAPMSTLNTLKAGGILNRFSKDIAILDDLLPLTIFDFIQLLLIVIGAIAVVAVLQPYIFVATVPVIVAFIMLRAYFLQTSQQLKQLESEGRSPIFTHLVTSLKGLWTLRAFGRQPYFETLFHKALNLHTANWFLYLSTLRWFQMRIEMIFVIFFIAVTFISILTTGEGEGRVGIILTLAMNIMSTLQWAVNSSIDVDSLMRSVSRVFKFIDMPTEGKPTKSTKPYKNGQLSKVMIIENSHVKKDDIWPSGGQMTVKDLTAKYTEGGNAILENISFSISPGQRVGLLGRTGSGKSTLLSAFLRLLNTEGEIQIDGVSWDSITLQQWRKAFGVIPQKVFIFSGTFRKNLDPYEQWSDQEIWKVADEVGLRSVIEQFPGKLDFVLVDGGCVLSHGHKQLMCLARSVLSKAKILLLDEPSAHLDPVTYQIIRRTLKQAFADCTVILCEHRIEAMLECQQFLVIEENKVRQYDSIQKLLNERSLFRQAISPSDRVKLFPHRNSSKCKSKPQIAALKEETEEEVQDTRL

SMILES: C[C@@H]1NC[C@@H](O)[C@H](O)[C@@H]1O [DFJ]
- addressing of delF508 and function as ion transporter (iodide efflux) (delF508-CFTR [1]): no significant effect

SMILES: OC[C@H]1NC[C@H](O)[C@@H](O)[C@H]1O [DGJ]
- addressing of delF508 and function as ion transporter (iodide efflux) (delF508-CFTR [1]): no significant effect

- EC50 (delF508-CFTR [2]; [7]): 134 µM
SMILES: OCC1NCC(O)C(O)C1O (stereo not drawn) [DMJ]
- addressing of delF508 and function as ion transporter (iodide efflux) (delF508-CFTR [1]): restores an addressing of the delF508 protein and allows the latter to function as an ion transporter

- EC50 (delF508-CFTR [2]; [7]): > 250 µM
SMILES: OC[C@H]1NC[C@H](O)[C@@H](O)[C@@H]1O [DNJ]
- addressing of delF508 and function as ion transporter (iodide efflux) (delF508-CFTR [1]): restores an addressing of the delF508 protein and allows the latter to function as an ion transporter

- activation of iodide efflux (CFTR activity / anionic transports) (wild-type CFTR [3]): activate an iodide efflux
SMILES: CCCCc1c(O)c2cccc(Cl)c2[n+]2ccccc12 [MPB-91]
- CFTR activity (iodide efflux) after 2 hours pre-treatment (wild-type CFTR [4]): not significantly different

SMILES: CCCCN1C[C@H](O)[C@@H](O)[C@H](O)[C@H]1CO [NB-DNJ, N-butyl-deoxynojirimycin]
- activation of iodide efflux (CFTR activity / anionic transports) (wild-type CFTR [3]): is not an activator of the wild-type CFTR nor of other anionic transports of these cells; also recorded: has no effect
- CFTR activity (iodide efflux) after 2 hours pre-treatment (wild-type CFTR [4]): the level of CFTR activity is not affected
- addressing of delF508 and function as ion transporter (iodide efflux) (delF508-CFTR [2]; CF15 cells pre-treated 2 hours at 37° C. with 500μM, stimulation fsk 10μM + Gst 30μM, MPB-91 250μM = 100%): restores addressing of the delF508 protein and allows the latter to function as an ion transporter
- EC50 (delF508-CFTR [2]; CF15 cells pre-treated 2 hours, stimulation fsk 10μM + Gst 30μM, FIG. 2): 123 µM
- tolerability in patients [5]: well tolerated
- location of delF508 protein by cell imaging (delF508-CFTR [6]): located the delF508 protein in the plasmatic membrane compartments
- cytotoxicity on tissues in culture (tissues in culture): is not cytotoxic
- cytotoxicity (MTT) (CHO-WT cells; 5μM): no cytotoxicity is measurable
- cytotoxicity (MTT) (CHO-WT cells; 50μM): no cytotoxicity is measurable
- cytotoxicity (MTT) (CHO-WT cells; 500μM): A low toxicity appears
- cell viability / cytotoxicity (MTT) (CHO-WT cells; CHO-WT cells, all concentrations): exhibits no cell cytotoxicity

SMILES: O[C@H]1[C@H](O)[C@@H](O)CN2CC[C@H](O)[C@H]12 [castanospermine]
- presence of delF508 at the surface of cells (delF508): had an effect on the renewal of the presence of delF508 at the surface of pulmonary epithelial cells

SMILES: CCCCN1C[C@@H](O)[C@H](O)[C@H](O)[C@@H]1C [nB-DFJ]
- addressing of delF508 and function as ion transporter (iodide efflux) (delF508-CFTR [1]): no significant effect

SMILES: CCCCN1C[C@H](O)[C@@H](O)[C@@H](O)[C@H]1CO [nB-DGJ]
- addressing of delF508 and function as ion transporter (iodide efflux) (delF508-CFTR [1]): no significant effect

- EC50 (delF508-CFTR [2]; [7]): 113 µM
SMILES: CCCCN1C[C@@H](O)[C@@H](O)[C@H](O)[C@H]1CO [nB-DMJ]
- addressing of delF508 and function as ion transporter (iodide efflux) (delF508-CFTR [1]): restores an addressing of the delF508 protein and allows the latter to function as an ion transporter
